# Measurements reported in patent publication US4863951A, “Pharmacologically active amino-5,6,7,8-tetrahydronaphtho [2,3-B] furan compounds” (ADIR Et Cie, priority 1987, dated 1989).
# Where a name gives a salt, the structure may show the parent alone. Read-outs that look alike come from different tables or passages of the source.
# Tests used:
# [1] = test system: apomorphine-induced rearing-up; test: Antagonism of apomorphine-induced rearing-up behavior in mice; format: in vivo; settings: Mus musculus, apomorphine 0.75 mg.kg^-1 s.c.
# Summary of the method: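 Mice given compound i.p. (doses from 2.5 mg.kg^-1) or orally at 20 mg.kg^-1, then challenged with apomorphine 0.75 mg.kg^-1 s.c.; antagonism of rearing-up behavior scored per Protais et al., significance at p<0.05.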
# [2] = test system: apomorphine-induced stereotypy; test: Antagonism of apomorphine-induced stereotypy in rats; format: in vivo; settings: Rattus norvegicus, 0.5 h, apomorphine 1.5 mg.kg^-1 i.p., 30 minutes
# Summary of the method: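 Rats received apomorphine or amphetamine i.p. at 1.5 mg.kg^-1, and stereotyped movements were scored on the Quinton–Halliwell scale. Values are % inhibition (−) or potentiation (+) of stereotypy score, measured at 30 minutes for apomorphine and 3 hours for amphetamine.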
# [3] = test system: amphetamine-induced stereotypy; test: Antagonism of amphetamine-induced stereotypy in rats; format: in vivo; settings: 3 hours
# Method: The inhibitory activity of the compounds of the invention with respect to apomorphine- or amphetamine-induced stereotypy in rats was assessed using the scale of scoring of stereotyped movements described by Quinton R. M. and Halliwell G. in Nature (1963), 200, p. 178-179.
# Apomorphine or amphetamine was administered to the animals intraperitoneally at a dose of 1.5 mg.kg^-1. The percentage inhibition (-) or potentiation (+) of the stereotypy score (% ISS) shown in Tables IV and V for apomorphine corresponds to a measurement time of 30 minutes. In contrast, the percentage inhibition of the stereotypy score shown in Table VI for amphetamine corresponds to a measurement time of 3 hours.
# (s=significant difference, p<0.05).
# [4] = test system: apomorphine-induced hypothermia; test: Antagonism with respect to apomorphine-induced hypothermia in mice; format: in vivo; settings: Mus musculus, 2 h, apomorphine 1 mg.kg^-1 s.c., after 2 hours
# Method: Testing for an antagonism with respect to apomorphine-induced hypothermia in mice was performed according to the method described by CHERMAT R. and PONCELET M. in J. Pharmac. (1983), 14, No. 1, p. 93-97. The dose of apomorphine administered subcutaneously was 1 mg.kg^-1. Tables VII and VIII show the percentage antagonism of the hypothermia observed after 2 hours.
# [5] = test system: isolation-induced aggression; test: Antiaggressive effects: isolation-induced aggression in mice; format: in vivo; settings: isolated mice, i.p.
# Summary of the method: (§1)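 Two paradigms: inhibition of aggressive behaviour in previously isolated mice, and in isolated, bulbectomized rats. Significance set at p<0.05.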
# [6] = test system: aggression of isolated, bulbectomized rats; test: Antiaggressive effects: aggression of isolated, bulbectomized rats; format: in vivo; settings: i.p.
# Summary of the method: as §1
# [7] = test system: reserpine-induced hypothermia; test: Antagonism of reserpine-induced hypothermia; format: in vivo, Swiss CD male mice; settings: mice, reserpine 2.5 mg.kg^-1 i.p.
# Summary of the method: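 Male Swiss CD mice (27-28 g, n=10/group) given reserpine 2.5 mg.kg^-1 i.p., then test compound i.p. 3 h later. Rectal temperature taken 1 and 2 h after compound dosing and compared with each animal's temperature just before compound administration.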
# [8] = test system: ponto-geniculo-occipital (P.G.O.) waves induced by Ro4-1284; test: Antagonism of the ponto-geniculo-occipital (P.G.O.) waves induced by Ro4-1284; format: in vivo; settings: Felis catus, iv, cats, i.v., read-out: ED50 (effective dose inhibiting by 50% the number of P.G.O. waves)
# Method: The antidepressant effects of the compounds of the invention were investigated by assessing the antagonism of reserpine-induced hypothermia and the antagonism of the ponto-geniculo-occipital waves induced by the compound Ro4-1284 in cats.
# This study was performed according to the method of Ruch-Monachon M. A., Jalfre M. and Haefely W. described in Arch. Int. Pharm. Therap., (1976), 219, No. 2, p. 251-346, and it enabled the effective dose (i.v) inhibiting by 50% (ED50) the number of P.G.O waves to be assessed.
# [9] = test system: interoceptive stimulus of apomorphine; test: Drug discrimination in rats (generalization with apomorphine); format: in vivo; settings: 30 minutes before test
# Method: Rats were trained to discriminate between the effect of the interoceptive stimulus of apomorphine (0.2 mg.kg^-1 i.p.) and that of physiological saline, according to a principle described by Colpaert F. in "Drug discrimination application in C.N.S. Pharmacology" Ed. Elsevier Biomedical 1982, Amsterdam. […]
# Under the experimental conditions employed, the behavior shown by the animals coincides with that noted in the case of administration of apomorphine.
smiles,measurement,setting,value
"NC1CCc2cc3c(cc2C1)OCC3 (racemic) [Example 2, di-7-Amino-2,3,5,6,7,8-hexahydronaphtho[2,3-b]furan hydrochloride]",change in vivo at 5 mg/kg,"[1]; ip, read-out: % inhibition of rearing-up, mice, i.p. dose 5 mg.kg^-1",-56%
same,change in vivo at 10 mg/kg,"[1]; ip, read-out: % inhibition of rearing-up, mice, i.p. dose 10 mg.kg^-1",-58%
same,change in vivo at 20 mg/kg,"[1]; ip, read-out: % inhibition of rearing-up, mice, i.p. dose 20 mg.kg^-1",-91%
same,change in vivo at 40 mg/kg,"[1]; ip, read-out: % inhibition of rearing-up, mice, i.p. dose 40 mg.kg^-1",-100%
same,change in vivo at 10 mg/kg,"[1]; po, read-out: % inhibition of rearing-up, mice, p.o. dose 10 mg.kg^-1",-77%
same,change in vivo at 20 mg/kg,"[1]; po, read-out: % inhibition of rearing-up, mice, p.o. dose 20 mg.kg^-1",-100%
same,change in vivo at 5 mg/kg,"[2]; ip, read-out: % ISS (inhibition (-) or potentiation (+) of the stereotypy score), rats, i.p. dose 5 mg.kg^-1",-16%
same,change in vivo at 10 mg/kg,"[2]; ip, read-out: % ISS (inhibition (-) or potentiation (+) of the stereotypy score), rats, i.p. dose 10 mg.kg^-1",-62%
same,change in vivo at 20 mg/kg,"[2]; ip, read-out: % ISS (inhibition (-) or potentiation (+) of the stereotypy score), rats, i.p. dose 20 mg.kg^-1",-48%
same,change in vivo at 10 mg/kg,"[2]; po, read-out: % ISS (inhibition (-) or potentiation (+) of the stereotypy score), rats, p.o. dose 10 mg.kg^-1",-55%
same,change in vivo at 20 mg/kg,"[2]; po, read-out: % ISS (inhibition (-) or potentiation (+) of the stereotypy score), rats, p.o. dose 20 mg.kg^-1",-55%
same,% ISS (inhibition (-) or potentiation (+) of the stereotypy score),"[3]; i.p. dose 5 mg.kg^-1, amphetamine 1.5 mg.kg^-1 i.p.",+32%
same,% ISS (inhibition (-) or potentiation (+) of the stereotypy score),"[3]; i.p. dose 10 mg.kg^-1, amphetamine 1.5 mg.kg^-1 i.p.",+39%
same,change in vivo at 1 mg/kg,"[4]; ip, read-out: % antagonism of hypothermia, mice, i.p. dose 1",-11%
same,change in vivo at 5 mg/kg,"[4]; ip, read-out: % antagonism of hypothermia, mice, i.p. dose 5",-57%
same,change in vivo at 10 mg/kg,"[4]; ip, read-out: % antagonism of hypothermia, mice, i.p. dose 10",-54%
same,change in vivo at 20 mg/kg,"[4]; ip, read-out: % antagonism of hypothermia, mice, i.p. dose 20",-80%
same,change in vivo at 2.5 mg/kg,"[4]; po, read-out: % antagonism of hypothermia, mice, p.o. dose 2.5",-35%
same,change in vivo at 5 mg/kg,"[4]; po, read-out: % antagonism of hypothermia, mice, p.o. dose 5",-59%
same,change in vivo at 10 mg/kg,"[4]; po, read-out: % antagonism of hypothermia, mice, p.o. dose 10",-70%
same,change in vivo at 20 mg/kg,"[4]; po, read-out: % antagonism of hypothermia, mice, p.o. dose 20",-86%
same,% of pairs of mice showing no sign of fighting,[5]; 2.5 mg.kg^-1,40%
same,% of pairs of mice showing no sign of fighting,[5]; 5 mg.kg^-1,70%
same,% of pairs of mice showing no sign of fighting,[5]; 10 mg.kg^-1,100%
same,% of pairs of mice showing no sign of fighting,[5]; 20 mg.kg^-1,100%
same,% of rats rendered non-aggressive,[6]; 1.25 mg.kg^-1,17%
same,% of rats rendered non-aggressive,[6]; 2.5 mg.kg^-1,50%
same,% of rats rendered non-aggressive,[6]; 5 mg.kg^-1,73%
same,% of rats rendered non-aggressive,[6]; 10 mg.kg^-1,17%
same,% inhibition of hypothermia,[7]; 2.5 mg.kg^-1 i.p.,-62%
same,% inhibition of hypothermia,[7]; 5 mg.kg^-1 i.p.,-27%
same,% inhibition of hypothermia,[7]; 10 mg.kg^-1 i.p.,-32%
same,% inhibition of hypothermia,[7]; 20 mg.kg^-1 i.p.,-47%
same,ED50,[8],0.146 mg/kg
same,% of animals which generalize,[9]; 1.0 mg.kg^-1 i.p.,20%
same,Number of animals showing the effect of generalization with apomorphine,[9]; 1.0 mg.kg^-1 i.p.,2/10
same,% of animals which generalize,[9]; 2.5 mg.kg^-1 i.p.,77%
same,Number of animals showing the effect of generalization with apomorphine,[9]; 2.5 mg.kg^-1 i.p.,7/9
same,% of animals which generalize,[9]; 5.0 mg.kg^-1 i.p.,50%
same,Number of animals showing the effect of generalization with apomorphine,[9]; 5.0 mg.kg^-1 i.p.,2/4
